The values that follow come from ChEMBL document CHEMBL1165855, “Guaiane sesquiterpenes from seaweed Ulva fasciata Delile and their antibacterial properties” (2010).

Each structure is given as a SMILES string. ≈ marks a conversion by molar mass, not a printed value.

Format in all cases: functional
The subject of experiment [1] is Vibrio harveyi. The experiment in a line: Antibacterial activity against Vibrio harveyi MTCC 3438 at 150 ug/ml after 24 hrs by disc-diffusion assay. As to conditions: MTCC 3438, 24 h, read-out: DIZ. In general terms: Agar diffusion results depend on both activity and mobility in agar.
Experiment [2] relates to Vibrio vulnificus. The experiment in a line: Antibacterial activity against Vibrio vulnificus MTCC 1145 after 24 hrs by broth microdilution assay. The note with it: MTCC 1145, 24 h. For orientation: Dilution methods test growth across graded concentrations, often in twofold steps.
The subject of experiment [3] is Vibrio harveyi. The experiment in a line: Antibacterial activity against Vibrio harveyi MTCC 3438 at 50 ug/ml after 24 hrs by disc-diffusion assay. The note with it: MTCC 3438, 24 h, read-out: DIZ.
In experiment [4] the test system is Vibrio vulnificus. The experiment in a line: Antibacterial activity against Vibrio vulnificus MTCC 1145 at 100 ug/ml after 24 hrs by disc-diffusion assay. The note with it: MTCC 1145, 24 h, read-out: DIZ.
Experiment [5] concerns Vibrio parahaemolyticus. The experiment in a line: Antibacterial activity against Vibrio parahaemolyticus ATCC 17809 at 100 ug/ml after 24 hrs by disc-diffusion assay. As to conditions: ATCC 17809, 24 h, read-out: DIZ.
The subject of experiment [6] is Vibrio harveyi. Description: Antibacterial activity against Vibrio harveyi MTCC 3438 at 100 ug/ml after 24 hrs by disc-diffusion assay. The note with it: MTCC 3438, 24 h, read-out: DIZ.
Experiment [7] relates to Vibrio parahaemolyticus. The experiment in a line: Antibacterial activity against Vibrio parahaemolyticus ATCC 17809 at 150 ug/ml after 24 hrs by disc-diffusion assay. The note with it: ATCC 17809, 24 h, read-out: DIZ.
Experiment [8] relates to Vibrio harveyi. The experiment in a line: Antibacterial activity against Vibrio harveyi MTCC 3438 after 24 hrs by broth microdilution assay. As to conditions: MTCC 3438, 24 h.
In experiment [9] the test system is Vibrio vulnificus. Description: Antibacterial activity against Vibrio vulnificus MTCC 1145 at 50 ug/ml after 24 hrs by disc-diffusion assay. The note with it: MTCC 1145, 24 h, read-out: DIZ.
Experiment [10] has as its system Vibrio parahaemolyticus. The experiment in a line: Antibacterial activity against Vibrio parahaemolyticus ATCC 17809 after 24 hrs by broth microdilution assay. As to conditions: ATCC 17809, 24 h.
For experiment [11], the system named is Vibrio parahaemolyticus. The experiment in a line: Antibacterial activity against Vibrio parahaemolyticus ATCC 17809 at 50 ug/ml after 24 hrs by disc-diffusion assay. As to conditions: ATCC 17809, 24 h, read-out: DIZ.
Experiment [12] has as its system Vibrio vulnificus. The experiment in a line: Antibacterial activity against Vibrio vulnificus MTCC 1145 at 150 ug/ml after 24 hrs by disc-diffusion assay. The note with it: MTCC 1145, 24 h, read-out: DIZ.

The MIC is the lowest concentration that inhibits growth of the organism. For the compound `CC[C@H]1CCC[C@@](C)(COC(C)=O)[C@H]2C=C[C@H](C)[C@@H]12`, the zone of inhibition at 150 µg/mL in the experiment with Vibrio harveyi [1] worked out at 12.6 mm; with Vibrio parahaemolyticus [7], 16.6 mm; with Vibrio vulnificus [12] it was 15.1 mm. Further, the values for the minimal inhibitory concentration (MIC) against Vibrio vulnificus [2], against Vibrio harveyi [8] and in the experiment with Vibrio parahaemolyticus [10] were 25 µg/mL (≈ 94.6 µM), 30 µg/mL (≈ 113 µM) and 25 µg/mL (≈ 94.6 µM), respectively. Also, the zone of inhibition at 50 µg/mL was determined as 11.7 mm with Vibrio harveyi [3], 14.1 mm in the experiment with Vibrio vulnificus [9] and 15.3 mm with Vibrio parahaemolyticus [11]. Further, the zone of inhibition at 100 µg/mL was found to be 14.9 mm with Vibrio vulnificus [4], 15.8 mm in the experiment with Vibrio parahaemolyticus [5] and 12.3 mm with Vibrio harveyi [6].

For the compound `CC[C@H]1CCC[C@@](C)(CO)[C@H]2C=C[C@H](C)[C@@H]12`, the results for the zone of inhibition at 150 µg/mL in the experiment on Vibrio harveyi [1], with Vibrio parahaemolyticus [7] and in the experiment with Vibrio vulnificus [12] were 12.9 mm, 13.2 mm and 12.4 mm, respectively. Moreover, the MIC against Vibrio vulnificus [2] was found to be 40 µg/mL (≈ 180 µM); in the experiment with Vibrio harveyi [8] it was 50 µg/mL (≈ 225 µM); in the experiment with Vibrio parahaemolyticus [10] it was 35 µg/mL (≈ 157 µM). The results for the zone of inhibition at 50 µg/mL with Vibrio harveyi [3], in the experiment with Vibrio vulnificus [9] and in the experiment with Vibrio parahaemolyticus [11] were 10.6 mm, 11.7 mm and 12.7 mm, respectively. Besides, the zone of inhibition at 100 µg/mL in the experiment with Vibrio vulnificus [4] is 12 mm; in the experiment on Vibrio parahaemolyticus [5], 12.9 mm; in the experiment on Vibrio harveyi [6], 11.7 mm.

In the case of `CC(C)[C@H]1CCC[C@@](C)(O)[C@H]2C=C[C@H](C)[C@@H]12`, the zone of inhibition at 150 µg/mL was 6.6 mm in the experiment with Vibrio harveyi [1], 7.28 mm with Vibrio parahaemolyticus [7] and 7.85 mm with Vibrio vulnificus [12]. The MIC came to 125 µg/mL (≈ 562 µM) in the experiment with Vibrio vulnificus [2], 160 µg/mL (≈ 720 µM) in the experiment with Vibrio harveyi [8] and 110 µg/mL (≈ 495 µM) in the experiment on Vibrio parahaemolyticus [10]. For the same compound, the results for the zone of inhibition at 50 µg/mL with Vibrio harveyi [3], in the experiment on Vibrio vulnificus [9] and in the experiment with Vibrio parahaemolyticus [11] were 6.54 mm, 7.15 mm and 6.83 mm, respectively. For the same compound, the zone of inhibition at 100 µg/mL turned out to be 7.3 mm in the experiment with Vibrio vulnificus [4], 6.92 mm in the experiment with Vibrio parahaemolyticus [5] and 6.58 mm with Vibrio harveyi [6].
